In US20240150356A1, “Pyrimidine amide compounds and use thereof” (ALPHALA CO., LTD., priority 2019, published 2024):

tested on: Hep3B cells (hepatocellular carcinoma cell line); test: In vitro MTS cell viability assay (NCI-60 methodology), Hep3B; type: cell-based; details: Homo sapiens, 48 h, Table 1, MTS, 2 days drug incubation, 50% reduction vs time zero, read-out: Hep3B LC50
In short: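 Hep3B cells given five 2-fold dilutions of compound for 2 days, with viability by MTS measured at time zero and at end. LC50 is the concentration giving a 50% fall in viable cells relative to the start of treatment, per NCI-60 formula.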

First: COc1ccc(/C=C/c2nc(NC(=O)c3ccc([N+](=O)[O-])s3)c3cnn(C)c3n2)cc1 [Compound 1-12, (E)-N-(6-(4-methoxystyryl)-1-methy-1H-pyrazolo[3,4-d]pyrimidin-4-yl)-5-nitrothiophene-2-carboxamide]
Second: CC(C)n1ncc2c(NC(=O)c3ccc([N+](=O)[O-])s3)nc(-c3ccc(C(F)(F)F)cc3)nc21 [Compound 1-24, N-(1-isopropyl-6-(4-(trifluoromethyl)phenyl)-1H-pyrazolo[3,4-d]pyrimidin-4-yl)-5-nitrothiophene-2-carboxamide]
The LC50 of the first is higher: greater than 5 µM for the first, 0.9 µM for the second.

same assay, conditions: Homo sapiens, 48 h, Table 4, MTS, 2 days drug incubation, 50% reduction vs time zero, read-out: Hep3B LC50

First: Cc1csc2c(NC(=O)c3ccc([N+](=O)[O-])s3)nc(Oc3ccc(C(C)(C)C)cc3)nc12 [Compound 4-12, N-(2-(4-(tert-butyl)phenoxy)-7-methylthieno[3,2-d]pyrimidin-4-yl)-5-nitrothiophene-2-carboxamide]
Second: O=C(Nc1nc(-c2cc(C(F)(F)F)ccc2F)nc2c(-c3ccccc3)csc12)c1ccc([N+](=O)[O-])s1 [Compound 4-17, N-(2-(2-fluoro-5-(trifluoromethyl)phenyl)-7-phenylthieno[3,2-d]pyrimidin-4-yl)-5-nitrothiophene-2-carboxamide]
The LC50 of the first is 1.6-fold higher: 1.34 µM for the first, 0.86 µM for the second.

same assay, conditions: Homo sapiens, 48 h, Table 5, MTS, 2 days drug incubation, 50% reduction vs time zero, read-out: Hep3B LC50

First: O=C(Nc1nc(-c2ccc(Cl)c(F)c2)nc2c1cnn2-c1ccccc1)c1ccc([N+](=O)[O-])s1 [Compound 5-46, N-(6-(4-chloro-3-fluorophenyl)-1-phenyl-1H-pyrazolo[3,4-d]pyrimidin-4-yl)-5-nitrothiophene-2-carboxamide]
Second: O=C(Nc1nc(-c2ccc(Cl)c(Cl)c2)nc2c1cnn2-c1ccccc1)c1ccc([N+](=O)[O-])s1 [Compound 5-48, N-(6-(3,4-dichlorophenyl)-1-phenyl-1H-pyrazolo[3,4,d]pyrimidin-4-yl)-5-nitrothiophene-2-carboxamide]
The LC50 of the first is 1.7-fold lower: 0.24 µM for the first, 0.41 µM for the second.

Work on `C=CC(=O)N1CCC(c2nc(NC(=O)c3ccc([N+](=O)[O-])s3)c3cnn(-c4ccccc4)c3n2)CC1` [Compound 5-2, N-(6-(1-acryloylpiperidin-4-yl)-1-phenyl-1H-pyrazolo[3,4-d]pyrimidin-4-yl)-5-nitrothiophene-2-carboxamide] yielded an LC50 of 2.47 µM.

same assay, conditions: Homo sapiens, 48 h, Table 6, MTS, 2 days drug incubation, 50% reduction vs time zero, read-out: Hep3B LC50

`O=C(Nc1nc(-c2ccc(F)cc2F)nc2c1cnn2-c1ccc(F)cc1)c1ccc([N+](=O)[O-])s1` [Compound 6-126] and `CCCOc1ccc(-c2nc(NC(=O)c3ccc([N+](=O)[O-])s3)c3cnn(-c4ccc(F)cc4)c3n2)cc1` [Compound 6-132] are within 1.5-fold of each other in LC50: 0.35 µM for the first, 0.43 µM for the second.

Going from `O=C(Nc1nc(-c2ccc(Cl)cc2)nc2c1cnn2-c1cccc(Cl)c1)c1ccc([N+](=O)[O-])s1` [Compound 6-38, N-(1-(3-chlorophenyl)-6-(4-chlorophenyl)-1H-pyrazolo[3,4-d]pyrimidin-4-yl)-5-nitrothiophene-2-carboxamide] to `CC(C)(C)c1ccc(-n2ncc3c(NC(=O)c4ccc([N+](=O)[O-])s4)nc(-c4cccc(F)c4)nc32)cc1` [Compound 6-80, N-(1-(4-(tert-butyl)phenyl)-6-(3-fluorophenyl)-1H-pyrazolo[3,4-d]pyrimidin-4-yl)-5-nitrothiophene-2-carboxamide], the LC50 rises from 0.38 µM to 0.78 µM (2.1-fold).

`CCOCCOc1ccc(-c2nc(NC(=O)c3ccc([N+](=O)[O-])s3)c3cnn(-c4cccc(F)c4)c3n2)cn1` [Compound 6-95, N-(6-(6-(2-ethoxyethoxy)pyridin-3-yl)-1-(3-fluorophenyl)-1H-pyrazolo[3,4-d]pyrimidin-4-yl)-5-nitrothiophene-2-carboxamide] and `CCOCCOc1ccc(-c2nc(NC(=O)c3ccc([N+](=O)[O-])s3)c3cnn(-c4ccc(OC)cc4)c3n2)cn1` [Compound 6-27, N-(6-(6-(2-ethoxyethoxy)pyridin-3-yl)-1-(4-methoxyphenyl)-1H-pyrazolo[3,4-d]pyrimidin-4-yl)-5-nitrothiophene-2-carboxamide] are within 1.5-fold of each other in LC50: 0.29 µM for the first, 0.21 µM for the second.

First: O=C(Nc1nc(N2CCCCC2)nc2c1cnn2-c1ccc(Cl)cc1)c1ccc([N+](=O)[O-])s1 [Compound 6-47, N-(1-(4-chlorophenyl)-6-(piperidin-1-yl)-1H-pyrazolo[3,4,d]pyrimidin-4-yl)-5-nitrothiophene-2-carboxamide]
Second: CC(C)(C)c1ccc(-n2ncc3c(NC(=O)c4ccc([N+](=O)[O-])s4)nc(-c4nnc(C(C)(C)C)o4)nc32)cc1 [Compound 6-76, N-(6-(5-(tert-butyl)-1,3,4-oxadiazol-2-yl)-1-(4-(tert-butyl)phenyl)-1H-pyrazolo[3,4-d]pyrimidin-4-yl)-5-nitrothiophene-2-carboxamide]
The LC50 of the first is 2.3-fold higher: 0.71 µM for the first, 0.31 µM for the second.

With `COCCN(C)c1ccc(-c2nc(NC(=O)c3ccc([N+](=O)[O-])s3)c3cnn(-c4ccc(F)cc4)c3n2)cn1` [Compound 6-131, N-(1-(4-fluorophenyl)-6-(6-((2-methoxyethyl)(methyl)amino)pyridin-3-yl)-1H-pyrazolo[3,4-d]pyrimidin-4-yl)-5-nitrothiophene-2-carboxamide] the LC50 was 0.37 µM.

same assay, conditions: Homo sapiens, 48 h, Table 7, MTS, 2 days drug incubation, 50% reduction vs time zero, read-out: Hep3B LC50

Compared with `O=C(Nc1nc(-c2ccc(F)cc2)nc2c1cnn2-c1ccc(Cl)cc1Cl)c1ccc([N+](=O)[O-])s1` [Compound 7-9], `O=C(Nc1nc(-c2ccc(F)nc2)nc2c1cnn2-c1ccc(Cl)cc1Cl)c1ccc([N+](=O)[O-])s1` [Compound 7-10] is higher in LC50: 0.37 µM for the first, greater than 1.25 µM for the second.

For `O=C(Nc1nc(-c2ccc(F)cc2)nc2c1cnn2-c1ccc(F)cc1F)c1ccc([N+](=O)[O-])s1` [Compound 7-12], the LC50 was 0.43 µM.

same assay, conditions: Homo sapiens, 48 h, Table 8, MTS, 2 days drug incubation, 50% reduction vs time zero, read-out: Hep3B LC50

For `C[C@@H]1C[C@@H](n2ncc3c(NC(=O)c4ccc([N+](=O)[O-])s4)nc(-c4ccc(Cl)cc4)nc32)CC(C)(C)C1` [Compound 8-15, N-(6-(4-chlorophenyl)-1-((1R,5S)-3,3,5-trimethylcyclohexyl)-1H-pyrazolo[3,4-d]pyrimidin-4-yl)-5-nitrothiophene-2-carboxamide], the LC50 was 1.27 µM.

same assay, conditions: Homo sapiens, 48 h, Table 10, MTS, 2 days drug incubation, 50% reduction vs time zero, read-out: Hep3B LC50

`CC1(C)CCC(n2ncc3c(NC(=O)c4ccc([N+](=O)[O-])s4)nc(-c4ccc5c(c4)OCO5)nc32)CC1` [Compound 10-66, N-(6-(benzo[d][1,3]dioxol-5-yl)-1-(4,4-dimethylcyclohexyl)-1H-pyrazolo[3,4-d]pyrimidin-4-yl)-5-nitrothiophene-2-carboxamide] and `CC1(C)CCC(n2ncc3c(NC(=O)c4ccc([N+](=O)[O-])s4)nc(-c4ccc(Cl)cc4F)nc32)CC1` [Compound 10-65, N-(6-(4-chloro-2-fluorophenyl)-1-(4,4-dimethylcyclohexyl)-1H-pyrazolo[3,4-d]pyrimidin-4-yl)-5-nitrothiophene-2-carboxamide] are within 1.5-fold of each other in LC50: 0.61 µM for the first, 0.58 µM for the second.

`O=C(Nc1nc(-c2ccsc2)nc2c1cnn2C1CCCCC1)c1ccc([N+](=O)[O-])s1` [Compound 10-6, N-(1-cyclohexyl-6-(thiophen-3-yl)-1H-pyrazolo[3,4-d]pyrimidin-4-yl)-5-nitrothiophene-2-carboxamide] and `COCc1ccc(-c2nc(NC(=O)c3ccc([N+](=O)[O-])s3)c3cnn(C4CCCCC4)c3n2)cc1` [Compound 10-30, N-(1-cyclohexyl-6-(4-(methoxymethyl)phenyl)-1H-pyrazolo[3,4-d]pyrimidin-4-yl)-5-nitrothiophene-2-carboxamide] are within 1.5-fold of each other in LC50: 1.03 µM for the first, 0.84 µM for the second.

`CCCOc1ccc(-c2nc(NC(=O)c3ccc([N+](=O)[O-])s3)c3cnn(C4CCC(F)(F)CC4)c3n2)cc1` [Compound 10-60, N-(1-(4,4-difluorocyclohexyl)-6-(4-propoxyphenyl)-1H-pyrazolo[3,4-d]pyrimidin-4-yl)-5-nitrothiophene-2-carboxamide] and `O=C(Nc1nc(-c2ccc(C(F)(F)F)cc2)nc2c1cnn2C1CCC(F)(F)CC1)c1ccc([N+](=O)[O-])s1` [Compound 10-58, N-(1-(4,4-difluorocyclohexyl)-6-(4-(trifluoromethyl)phenyl)-1H-pyrazolo[3,4-d]pyrimidin-4-yl)-5-nitrothiophene-2-carboxamide] are within 1.5-fold of each other in LC50: 0.83 µM for the first, 0.61 µM for the second.

First: O=C(Nc1nc(-c2cc(Cl)ccc2F)nc2c1cnn2C1CCCCC1)c1ccc([N+](=O)[O-])s1 [Compound 10-47, N-(6-(5-chloro-2-fluorophenyl)-1-cyclohexyl-1H-pyrazolo[3,4-d]pyrimidin-4-yl)-5-nitrothiophene-2-carboxamide]
Second: O=C(Nc1nc(-c2ccc(Cl)cc2Cl)nc2c1cnn2C1CCCCC1)c1ccc([N+](=O)[O-])s1 [Compound 10-42]
The LC50 of the first is lower: 0.63 µM for the first, greater than 1.25 µM for the second.

`CC1CC(C)CC(n2ncc3c(NC(=O)c4ccc([N+](=O)[O-])s4)nc(-c4ccc(F)nc4)nc32)C1` (centres unmarked) [Compound 10-68, N-(1-(3,5-dimethylcyclohexyl)-6-(6-fluoropyridin-3-yl)-1H-pyrazolo[3,4-d]pyrimidin-4-yl)-5-nitrothiophene-2-carboxamide] and `COCCOc1ccc(-c2nc(NC(=O)c3ccc([N+](=O)[O-])s3)c3cnn(C4CCCCC4)c3n2)cn1` [Compound 10-51, N-(1-cyclohexyl-6-(6-(2-methoxyethoxy)pyridin-3-yl)-1H-pyrazolo[3,4-d]pyrimidin-4-yl)-5-nitrothiophene-2-carboxamide] are within 1.5-fold of each other in LC50: 0.97 µM for the first, 0.96 µM for the second.

Work on `CCOCCOCCOc1ccc(-c2nc(NC(=O)c3ccc([N+](=O)[O-])s3)c3cnn(C4CCCCC4)c3n2)cn1` [Compound 10-53, N-(1-cyclohexyl-6-(6-(2-(2-ethoxyethoxy)ethoxy)pyridin-3-yl)-1H-pyrazolo[3,4-d]pyrimidin-4-yl)-5-nitrothiophene-2-carboxamide] yielded an LC50 of 1.23 µM.

same assay, conditions: Homo sapiens, 48 h, read-out: Hep3B LC50 (uM)

With `CC(C)(C)[Si](C)(C)OC1CN(c2nc(NC(=O)c3ccc([N+](=O)[O-])s3)c3cnn(-c4ccc(OC(F)(F)F)cc4)c3n2)C1` [Compound 6-84] the LC50 was 1.13 µM.
